Measured values published in patent US20220323389A1, “TREATING NON-ALCOHOLIC FATTY LIVER DISEASE AND INFLAMMATORY STEATOHEPATITIS WITH SLC25A1 INHIBITORS” (GEORGETOWN UNIVERSITY, priority 2019, published 2022).

Tests used:
[1] = system: HFD-fed mice; experiment: Inflammation and fibrosis in HFD-fed mice (serum interleukins, macrophage IHC, RT-PCR, Picro-Sirius Red); assay type: in vivo, mouse
From the text: (§1) Cells, reagents, antibodies, primers. CTPI-2 was purchased from Enamine Ltd. (Monmouth Jct, N.J.). The anti-SLC25A1 antibody used in immunoblots was either from Santa Cruz Biotech (Dallas, Tex.), (#sc-86392), employed at 1:1000 dilution, or from Proteintech (15235-1-AP, Rosemont, Ill.), employed at 1:1000 dilution. Mice and diets. For the majority of the experiments (except for experiments harboring genetic alterations of the Slc25a1 gene), DIO C57BL/6J mice were purchased from Jackson Laboratory (Bar Harbor, Me.) between 4-6 weeks of age. Mice were acclimated in the Georgetown University animal facility for at least one week. At the indicated times, mice were randomized to a standard laboratory chow diet (Labdiet #5053, St. Louis, Mo.) or the high fat diet (Researchdiets D12492, New Brunswick, N.J.), with 60% calories derived from fat (lard), and 20% from sucrose. During the course of the experiments, mice were housed at one mouse per cage and food consumption was measured regularly. Animals were maintained in a normal light-cycle and provided with water ad libitum. CTPI-2 treatment. CTPI-2 was administered at 50 mg/kg via intra-peritoneal injection on alternate days. CTPI-2 was diluted either in DMSO (at 0.2% final concentration) using DMSO as vehicle control, or in 0.47% Sodium Bicarbonate (NaCO3) at a final concentration of 14 mM. NaCO3 (0.47%) served as vehicle control. Immunoblot of murine tissues. Frozen tissue samples were homogenized in radioimmunoprecipitation (RIPA) buffer with protease inhibitor cocktails. Protein quantification was done by using a Coomassie (Bradford) Protein Assay Kit (Pierce, Waltham Mass.). Equal amount of protein lysate was loaded and separated by Novex™ 4-20% Tris-Glycine Mini Gel (Invitrogen, Carlsbad, Calif.), then transferred to a PVDF membrane. Appropriate horseradish peroxidase-conjugated secondary antibody (Invitrogen) was applied after incubation with primary antibody. SuperSignal™ West Pico PLUS Chemiluminescent Substrate (Thermo Fisher Scientific, Waltham, Mass.) was used for protein detection. SLC25a1 strains. The original Slc25a1 tm1a strain was purchased from the Mutant Mouse Resource and Research Center (MMRRC, Chapel Hill, N.C.) (C57BL/6N-Slc25a1^tm1a(EUCOMM)Wtsi, RRID: MMRRC_042258-UCD). The Tg(Alb-cre)21M (Alb-Cre) mice were purchased from Jackson Laboratory (#003574). Slc25a1^+/−, Slc25a1^fl/fl and Alb/Cre mice were genotyped by conventional PCR with genomic DNA extracted from the mouse tail biopsies. Agarose gel electrophoresis was used for analysis of PCR product analysis. The PCR conditions used were as follows: 95° C. for 4 minutes, followed by 40 cycles (95° C. for 30 seconds, 65° C. for 30 seconds, and 72° C. for 50 seconds), 72° C. for 2 min then kept in 4° C. before used. Histological Analysis. Assessment of steatosis was performed on paraffin embedded H&E stained sections derived from 3-6 animals and on multiple images for each animal. The steatosis grade was scored according to the degree of liver involvement with 0, <5%; 1, 5% to 33%; 2, 33% to 50%; and 3, >50%. Alternatively, the percentage of steatosis per area was calculated with ImageJ program. Lypidomic analysis. Targeted quantitation of triglycerides was performed using multiple reaction monitoring mass spectrometry. The samples were resolved on an CORTECS T3 2.7 μm, 2.1×30 mm column online with a triple quadrupole mass spectrometer (Xevo-TQ-S, Waters Corporation, Milford, Mass.) operating in the multiple reaction monitoring (MRM) mode. Signal intensities from all MRM Q1/Q3 ion pairs for triglycerides were ranked to ensure selection of the most intense precursor and fragment ion pair for MRM-based quantitation. […] The LC and MRM method used here for the study was developed by Waters Corporation. The metabolite ratios were calculated by normalizing the peak area of endogenous metabolites within tissue samples normalized to the internal standard. Processed data was normalized with respect to tissue weight taken for analysis. […]

[2] = system: liver gene expression program induced by the HFD; experiment: RNAseq, RT-qPCR and immunoblot of liver (and WAT) of HFD-fed mice; assay type: in vivo, mouse
From the text: as §1

[3] = system: liver of HFD-fed mice; experiment: Liver metabolites and lipid profile (LC-MS, Lipidyzer) in HFD-fed mice; assay type: in vivo, mouse
From the text: as §1

[4] = system: HepG2 cells; experiment: mRNA levels (RT-qPCR) in tissue culture cells treated with CTPI-2 with or without citrate; assay type: cell-based
Experimental: FIGS. 6 A-B show citrate and Ac-CoA levels derived from liver extracts of HFD-vehicle (light) or HFD+CTPI-2 (dark). FIGS. 6C-D show levels of the indicated triacylglycerides (TAG, (FIG. 6C)) and total fatty acids (FA, panel D) detected with the Lipidyzer platform. N=2-3 mice per group. FIG. 6E-F show levels of the indicated metabolites detected with targeted LC-MS analysis. […] The indicated mRNA levels were analyzed with RT-qPCR. H. Model summarizing findings as explained in the Examples. Bars indicate Standard Deviations. *p≤0.05, **p≤0.01, ***p≤0.001.
To corroborate the direct effect of CTPI-2 and of citrate in the regulation of the genes identified by our analysis, the effects of the drug and of citrate supplementation in tissue culture cells were explored.

[5] = target: SLC25A1 (Homo sapiens, UniProt P53007); conditions: previous studies performed in vitro (Fernandez et al.); cited from earlier work
Chain of SLC25A1 (P53007 14-311, species assumed): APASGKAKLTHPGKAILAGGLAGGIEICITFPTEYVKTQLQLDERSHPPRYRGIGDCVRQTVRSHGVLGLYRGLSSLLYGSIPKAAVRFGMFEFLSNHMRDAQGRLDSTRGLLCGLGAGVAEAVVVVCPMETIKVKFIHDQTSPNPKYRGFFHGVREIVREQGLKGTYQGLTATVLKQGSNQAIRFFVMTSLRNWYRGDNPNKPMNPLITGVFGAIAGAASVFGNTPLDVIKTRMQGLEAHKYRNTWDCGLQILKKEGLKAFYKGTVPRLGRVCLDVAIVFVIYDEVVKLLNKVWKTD

[6] = liver, 4 weeks of CTPI-2 treatment
[7] = liver, normalized to HFD-vehicle

With O=C(O)c1ccccc1NS(=O)(=O)c1ccc(Cl)c([N+](=O)[O-])c1 [CTPI-2] the “liver Kupffer cell macrophage population (F4/80) and perivascular macrophage infiltration” value ([1]; HFD-fed mice, IHC) was “reversed”, the “M2 markers (MRC1, FN-1, Arg1) mRNA” value ([1]; liver of HFD-fed mice, RT-PCR) was “either not affecting or increasing” and the “expression of anti-fibrotic cadherin 1” value ([1]; liver of HFD-fed mice, RT-PCR) was “increase”. The “expression of pro-fibrotic genes (collagen 1 and 4, keratin 19, PDGFR)” value ([1]; liver of HFD-fed mice, RT-PCR) was “reduction”, the “pro-inflammatory markers of the M1 phenotype (mRNA)” value ([1]; liver of HFD-fed mice, RT-PCR) was “repressed” and the “bile acid biosynthetic pathway (RNAseq)” value ([2]; liver) was “inhibits bile acid biosynthetic pathway”. The “protein levels matching the gene expression pattern (immunoblot)” value ([2]; liver and adipose tissue) was “concordantly paralleled by changes in the protein levels”, the “cluster of genes involved in NAFLD (RNAseq)” value [2, 6] was “down-regulated” and the “gene expression program induced by the HFD (RNAseq)” value [2, 6] was “essentially reverted the gene expression program induced by the HFD”. For the same molecule, the “levels of PPARγ” value ([2]; liver, RT-qPCR) was “unchanged”, the “PPARγ and downstream target genes CEBPα1, CEBPα2 and GLUT4 (RT-qPCR)” value [2, 7] was “down-regulated” and the “master lipogenetic genes SREBP1, FASN and ACACA (RT-qPCR)” value [2, 7] was “suppression”. The “genes/pathways of carbon and pyruvate metabolism, glycolysis and gluconeogenic genes (RNAseq)” value ([2]; liver, Fbp1, PC, PCK1/2, G6PC, G6PC3, AldoA/B, PFKL/P, PGK1, PKLR) was “repressed”, the “Ac-CoA concentration in the liver” value ([3]; HFD+CTPI-2 vs HFD-vehicle) was “significantly lower” and the “citrate concentration in the liver” value ([3]; HFD+CTPI-2 vs HFD-vehicle) was “significantly lower”. For the same molecule, the liver diglycerides levels ([3]; LC-MS) was “reduced the levels”, the “liver linoleic acid levels” value ([3]; LC-MS) was “reduced the levels” and the liver monoglycerides levels ([3]; LC-MS) was “reduced the levels”. The “liver palmitic acid levels” value ([3]; LC-MS) was “reduced the levels”, the liver phosphatidylglycerol levels ([3]; LC-MS) was “reduced the levels” and the “liver concentration of long chain triglycerides” value ([3]; Lipidyzer platform) was “significantly diminished”. For the same molecule, the “total level of free fatty acids in the liver” value ([3]; Lipidyzer platform, particularly chain 16 to 25) was “significantly diminished”, the “liver concentration of lactate” value ([3]; targeted LC-MS) was “decreased” and the “liver concentration of pyruvate” value ([3]; targeted LC-MS) was “decreased”. For the same molecule, the “effect of citrate supplementation on CTPI-2 gene inhibition (FASN, ACACA, AldoA, Aldo/B)” value ([4]; 5 mM sodium citrate) was “completely rescued by citrate”, the “expression of FA synthesis genes FASN and ACACA” value ([4]; CTPI-2 5-12 hours) was “inhibited” and the “expression of glycolytic/gluconeogenesis genes AldoA and Aldo/B” value ([4]; CTPI-2 5-12 hours) was “inhibited”. For the same molecule, the “SLC25A1 expression levels in vitro” value [5] was “did not affect the expression levels of this protein” and the “mitochondrial citrate transport activity” value [5] was “interfered with the mitochondrial citrate transport activity”.
